Converted amounts (≈) assume the structure as drawn. Read-outs that look alike come from different tables or passages of the source.
Assays:
[1] = test system: PEDV CV777; experiment: Antiviral activity assay (MTT, virus inhibition rate), PEDV CV777; conditions: Porcine epidemic diarrhea virus, Vero C1008, read-out: IC50 PEDV CV777
[2] = Cytotoxicity assay (MTT); format: cell-based; conditions: African green monkey
Description: (§1) Then, different concentrations of compounds in DMEM were added to cells and incubated for another 48 h. […] MTT solution (10 μL per well) was added and incubated for another 4 h at 37°C, discarding the native compounds and using dimethyl sulfoxide (DMSO) to dissolve products for 10 min at 37°C. Microplate reader (BioTek, Winooski, VT, United States) was used to measure the 96-well plate at 570 nm, and the cell viability (%) was calculated by OD values ([23]). […] The percentage of relative cell viability was calculated according to the formula: […]%=[…]

[3] = test system: PEDV; experiment: Antiviral activity assay, PEDV strain not stated; conditions: Porcine epidemic diarrhea virus, read-out: IC50 values against PEDV
[4] = test system: PEDV DY; experiment: Antiviral activity assay (MTT, virus inhibition rate), PEDV DY; conditions: Porcine epidemic diarrhea virus, Vero C1008, read-out: IC50 PEDV DY
[5] = test system: PEDV; experiment: Time-of-addition assay, post-viral entry stage (qPCR, western blot); format: cell-based, porcine epidemic diarrhea virus; conditions: for viral nucleic acid copy numbers vs control group: qPCR, p < 0.05; for expression level of PEDV N protein: western blot, concentration dependent
[6] = test system: PEDV DY; experiment: Virus titration (TCID50, Reed-Muench), PEDV DY; format: cell-based, porcine epidemic diarrhea virus; conditions: for virus titer vs virus control group: PEDV DY, 24, 36 and 48 hpi, p < 0.01
[7] = test system: PEDV; experiment: Time-of-addition assay, viral entry stage (qPCR); format: cell-based, porcine epidemic diarrhea virus
[8] = test system: PEDV; experiment: Indirect immunofluorescence assay of viral load; conditions: Vero E6 cells, 48 h after infection, concentration dependent
[9] = test system: PEDV CV777; experiment: Virus titration (TCID50, Reed-Muench), PEDV CV777; format: cell-based, porcine epidemic diarrhea virus; conditions: for virus titer vs virus control group: PEDV CV777, 24, 36 and 48 hpi, p < 0.01
[10] = test system: enterovirus 71; set-up: method as in PMID 24598537; conditions: replication of enterovirus 71, by inhibiting 3CLpro protein activity; cited from earlier work
[11] = test system: PEDV; experiment: Viral quantification by qPCR at different time points; format: cell-based, porcine epidemic diarrhea virus; conditions: 24 hpi and 48 hpi, p < 0.001
[12] = test system: mice; conditions: animal tests; cited from earlier work
[13] = test system: PEDV; experiment: Time-of-addition assay, prophylactic stage (qPCR, western blot); format: cell-based, porcine epidemic diarrhea virus; conditions: for viral mRNA quantitation: qPCR; for expression level of PEDV N protein: western blot, concentration dependent
[14] = test system: DENV-2; set-up: method as in doi:10.1186/1743-422X-8-560; conditions: 50 μg/mL after virus incubation; cited from earlier work
[15] = test system: DENV-2; set-up: method as in doi:10.1088/1755-1315/462/1/012033; conditions: cited from earlier work
[16] = test system: human Huh 7 it-1 cell line; set-up: method as in doi:10.1088/1755-1315/462/1/012033; conditions: cited from earlier work
[17] = test system: Vero E6 cells; experiment: Cytotoxicity assay (MTT); format: cell-based
Description: as §1

[18] = Vero E6 cells, MTT, 48 h incubation, read-out: CC50

CC1(C)[C@@H](O)CC[C@]2(C)[C@H]3C(=O)C=C4[C@@H]5C[C@@](C)(C(=O)O)CC[C@]5(C)CC[C@@]4(C)[C@]3(C)CC[C@@H]12 [Glycyrrhetinic acid, glycyrrhetinic acid]
IC50 [1]: > 100 µg/mL
CC50 at 48 h [2]: 17.4 ± 4.61 µg/mL (≈ 37 µM)
IC50 [3]: > 100 µg/mL
IC50 [4]: > 100 µg/mL

O=c1cc(-c2ccccc2)oc2cc(O)cc(O)c12 [Chrysin, chrysin]
viral nucleic acid copy numbers vs control group [5]: significantly lower than those in the control group
expression level of PEDV N protein [5]: significantly inhibit
IC50 [1]: 2.19 ± 2.25 µg/mL (≈ 8.62 µM)
virus titer vs virus control group [6]: significantly lower
inhibitory effect, nucleic acid copy numbers vs control group [7]: did not show significant inhibitory effects
CC50 at 48 h [2]: 83.6 ± 2.12 µg/mL (≈ 329 µM)
green fluorescence of viral proteins (IFA) [8]: diminished to varying extents
virus titer vs virus control group [9]: significantly lower
IC50 [10]: 24.1 µM
virus copy numbers vs control group ([11]; 50 μg/mL): significantly lower than in the control group
toxic effects [12]: no toxic effects on mice
viral mRNA quantitation ([13]; 12.5 μg/mL): 3.87 × 10^6 copies/μL
viral mRNA quantitation ([13]; 25 μg/mL): 1.78 × 10^6 copies/μL
viral mRNA quantitation ([13]; 50 μg/mL): 1.19 × 10^6 copies/μL
expression level of PEDV N protein [13]: significantly inhibit
IC50 [4]: 2.48 ± 0.59 µg/mL (≈ 9.77 µM)

NC(=O)c1ncn([C@@H]2O[C@H](CO)[C@@H](O)[C@H]2O)n1 [Ribavirin, ribavirin, reference compound]
IC50 [1]: 88 ± 3.78 µg/mL (≈ 360 µM)
virus titer vs virus control ([6]; PEDV DY, 36 h, p < 0.05): significantly lower
CC50 at 48 h [2]: 249 ± 4.2 µg/mL (≈ 1020 µM)
virus titer vs virus control ([9]; PEDV CV777, 36 h, p < 0.05): significantly lower
IC50 [4]: 71.4 ± 3.78 µg/mL (≈ 292 µM)

CC1(C)CC[C@]2(C(=O)O)CC[C@]3(C)C(=CC[C@@H]4[C@@]5(C)CC[C@H](O)C(C)(C)[C@@H]5CC[C@]43C)[C@@H]2C1 [Oleanolic acid, oleanolic acid]
IC50 [1]: > 100 µg/mL
CC50 at 48 h [2, 18]: 4.05 ± 3.91 µg/mL (≈ 8.88 µM)
IC50 [3]: > 100 µg/mL
IC50 [4]: > 100 µg/mL

COC(=O)C1=CO[C@@H](O[C@@H]2O[C@H](CO)[C@@H](O)[C@H](O)[C@H]2O)[C@@H]2C(CO)=CC[C@H]12 [Geniposide, geniposide]
IC50 [1]: > 100 µg/mL
CC50 at 48 h [2, 18]: 10.4 ± 2.03 µg/mL (≈ 26.7 µM)
IC50 [3]: > 100 µg/mL
IC50 [4]: > 100 µg/mL

O=C1C[C@@H](c2ccc(O)cc2)Oc2cc(O)cc(O)c21 [Naringenin, naringenin]
viral nucleic acid copy numbers vs control group [5]: significantly lower than those in the control group
expression level of PEDV N protein [5]: significantly inhibit
IC50 [1]: 4.39 ± 0.96 µg/mL (≈ 16.1 µM)
virus titer vs virus control group [6]: significantly lower
inhibitory effect, nucleic acid copy numbers vs control group [7]: did not show significant inhibitory effects
CC50 at 48 h [2, 18]: 61.9 ± 0.97 µg/mL (≈ 227 µM)
reduction of DENV-2 RNA levels [14]: 50%
green fluorescence of viral proteins (IFA) [8]: diminished to varying extents
virus titer vs virus control group [9]: significantly lower
virus copy numbers vs control group ([11]; 12.5 μg/mL): significantly lower than in the control group
viral mRNA quantitation ([13]; 3.13 μg/mL): 4.79 × 10^6 copies/μL
viral mRNA quantitation ([13]; 6.25 μg/mL): 3.21 × 10^6 copies/μL
viral mRNA quantitation ([13]; 12.5 μg/mL): 2.17 × 10^6 copies/μL
expression level of PEDV N protein [13]: significantly inhibit
IC50 [4]: 4.5 ± 2.25 µg/mL (≈ 16.5 µM)

O=c1c(O)c(-c2ccc(O)c(O)c2)oc2cc(O)cc(O)c12 [quercetin]
IC50 against DENV-2 [15]: 18.41 µg/mL (≈ 60.9 µM)
CC50 [16]: 217.113 µg/mL (≈ 718 µM)
IC50 [3]: > 100 µg/mL

soy isoflavone
CC50 [17]: 53.03 ± 2.30 µg/mL

— PMC10733469, “Antiviral activity of chrysin and naringenin against porcine epidemic diarrhea virus infection” (Frontiers in Veterinary Science, 2023)
